The target in test [1] is T1, μ opioid receptor (Homo sapiens, UniProt P35372).
T1 construct: expressed in transfected cells; host or cells: CHO cells (membranes)
Kind of test: Competition binding assay on membranes of CHO cells expressing μ opioid receptor, [3H]-labeled ligand. As to conditions: for Ki: read-out: μOR Ki. The method in brief:
(§1)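 CHO membranes (20–30 μg protein) incubated with [3H]-labeled ligand at 1–2 nM and test compounds, 30 min at 30° C; nonspecific binding with 1 μM corresponding ligand. Filtered on GF/C, washed with 50 mM Tris-HCl pH 7.4, scintillation-counted. IC50 converted to Ki by Ki=IC50/(1+[L]/Kd).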

The target of test [2] is T2, δ opioid receptor (Homo sapiens, UniProt P41143).
T2 construct: expressed in transfected cells; host or cells: CHO cells (membranes)
Briefly: Competition binding assay on membranes of CHO cells expressing δ opioid receptor, [3H]-labeled ligand. Particulars: for inhibition at 1 µM: 1 μM concentration of compound; for Ki: read-out: δOR Ki. A digest of the protocol: as §1

Test [3] deals with T3, κ opioid receptor (Homo sapiens, UniProt P41145).
T3 construct: expressed in transfected cells; host or cells: CHO cells (membranes)
Briefly: Competition binding assay on membranes of CHO cells expressing κ opioid receptor, [3H]-labeled ligand. Particulars: for inhibition at 1 µM: 1 μM concentration of compound; for Ki: read-out: κOR Ki. The method in brief:
as §1

The subject of test [4] is Female mice. Briefly: In vivo hot plate method analgesia test. As to conditions: intraperitoneal; for % MPE (5 mg/kg): Table 2-2, hot plate 55° C.; for Maximum percentage effective analgesia (% MPE): Table 5-2, hot plate 55° C., 10 mg/kg dose. The method in brief:
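Female mice (~20 g) on a 55° C hot plate, hindpaw response latency as pain threshold (pre-screen 5–30 s, 60 s cut-off). Latencies at 15, 30, 60 and 120 min after intraperitoneal dosing. %MPE = (post−pre latency)/(60−pre)×100, ED50 derived from %MPE.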
(In general: Thermal pain tests record how soon the animal reacts.)

[5] abbreviates: 0.5 h, Table 2-1, read-out: δOR Binding rate (%).
[6] abbreviates: 0.5 h, Table 2-1, read-out: κOR Binding rate (%).
Setting [7] is: 0.5 h, Table 5-1, read-out: δOR Combination rate (%).

Broadly, the Ki is the equilibrium dissociation constant of an inhibitor or competing ligand from its target.

Counter-ions that a name gives are not always drawn. Like-named read-outs stand apart in the source and are kept apart here. Where only a bound is given, the exact number is not on record here.

Regarding `C=CCS(=O)(=O)N1CCC(O)(c2cccc(OC)c2)C(CN(C)C)C1.Cl` (stereo not shown) [FWBH21, 1-(Allylsulfonyl)-3-((dimethylamino)methyl)-4-(3-methoxyphenyl)piperidin-4-ol hydrochloride], the Ki in test [1] (Table 2-1) was 0.0404 ± 0.00499 µM. For the same compound, the results for the inhibition at 1 µM in test [2] (setting [5]) and in test [3] (setting [6]) were 31.52 ± 0.21% and 17.1%, respectively. In test [4] (5 mg/kg dose), the “% MPE (5 mg/kg)” value came out at 18.80%.
Take `COc1cccc(C2(O)CCN(S(=O)(=O)Cc3cccc(C(F)(F)F)c3)CC2CN(C)C)c1.Cl` (stereo not shown) [FWBH10, 3-((Dimethylamino)methyl)-4-(3-methoxyphenyl)-1-((3-(trifluoromethyl)benzyl)sulfonyl) piperidin-4-ol hydrochloride]: the Ki in test [1] (Table 2-1) stood at 0.00468 ± 0.00012 µM; in test [2] (Table 2-1) it was 3.65 ± 1.25 µM. The inhibition at 1 µM in test [3] (setting [6]) is 30.1 ± 0.7%. The “% MPE (5 mg/kg)” value in test [4] (5 mg/kg dose) was found to be 72.41%.
With `CCS(=O)(=O)N1CCC(O)(c2cccc(OC)c2)C(CN(C)C)C1.Cl` (stereo not shown) [FWBH18, 3-((Dimethylamino)methyl)-1-(ethylsulfonyl)-4-(3-methoxyphenyl)piperidin-4-ol hydrochloride], in test [1] (Table 2-1), the Ki worked out at 0.18 ± 0.0117 µM. Also, the figures for the inhibition at 1 µM in test [2] (setting [5]) and in test [3] (setting [6]) were 24 ± 0.49% and 13.5 ± 2.22%, respectively. Further, the “% MPE (5 mg/kg)” value in test [4] (5 mg/kg dose) is 15.57%.
Consider `COc1cccc(C2(O)CCN(C(=O)C3(c4ccccc4)CCCCC3)CC2CN(C)C)c1.Cl` (stereo not shown) [FWBE27, (3-((Dimethylamino)methyl)-4-hydroxy-4-(3-methoxyphenyl)piperidin-1-yl)(1-phenylcyclohexyl) methanone hydrochloride], for which the Ki in test [1] (Table 5-1) turned out to be 0.0516 ± 0.00224 µM; in test [3] (Table 5-1), 0.0307 ± 0.00096 µM. Also, the inhibition at 1 µM in test [2] (setting [7]) was determined as 93.6 ± 1.08%. For the same compound, in test [4], the “Maximum percentage effective analgesia (% MPE)” value came to 61.21%.
For `COc1cccc(C2(O)CCN(S(=O)(=O)C[C@]34CC[C@H](CC3=O)C4(C)C)CC2CN(C)C)c1` (stereo partly drawn) [FWBH25, (1S,4R)-1-(((3-((Dimethylamino)methyl)-4-hydroxy-4-(3-methoxyphenyl)piperidin-1-yl)sulfonyl)methyl)-7,7-dimethylbicyclo[2.2.1]heptan-2-one hydrochloride], the Ki in test [1] (Table 2-1) came to 0.0508 ± 0.00156 µM; in test [3] (Table 2-1), 0.054 ± 0.0209 µM. Also, the inhibition at 1 µM in test [2] (setting [5]) came out at 14.3 ± 8.63%. The “% MPE (5 mg/kg)” value in test [4] (5 mg/kg dose) was found to be 6.03%.
On to `COc1cccc(C2(O)CCN(C(=O)C3(c4ccccc4)CC3)CC2CN(C)C)c1.Cl` (stereo not shown) [FWBE24, (3-((Dimethylamino)methyl)-4-hydroxy-4-(3-methoxyphenyl)piperidin-1-yl)(1-phenylcyclopropyl)methanone hydrochloride], for which the results for the Ki in test [1] (Table 5-1), in test [2] (Table 5-1) and in test [3] (Table 5-1) were 0.06715 ± 8e-05 µM, 0.848 ± 0.529 µM and 0.0339 ± 0.00092 µM, respectively. For the same compound, the “Maximum percentage effective analgesia (% MPE)” value in test [4] was determined as 29.85%.
As to `COc1cccc(C2(O)CCN(C(=O)Cc3cccs3)CC2CN(C)C)c1.Cl` (stereo not shown) [FWBE8, 1-(3-((Dimethylamino)methyl)-4-hydroxy-4-(3-methoxyphenyl)piperidin-1-yl)-2-(thiophen-2-yl)ethyl-1-one hydrochloride], the Ki in test [1] (Table 5-1) is 0.0348 ± 0.0011 µM. The inhibition at 1 µM in test [2] (setting [7]) amounted to 18.7 ± 1.9%; in test [3] (0.5 h, Table 5-1, read-out: κOR Combination rate (%)), 32.5 ± 4.4%. Further, in test [4], the “Maximum percentage effective analgesia (% MPE)” value came to 93.0%.
`COc1cccc(C2(O)CCC(N(Cc3ccccc3)S(=O)(=O)c3cccs3)CC2CN(C)C)c1.Cl` (stereo not shown) [N-Benzyl-N-(3-((dimethylamino)methyl)-4-hydroxy-4-(3-methoxyphenyl)cyclohexyl)thiophene-2-sulfonamide hydrochloride]: the inhibition at 10 µM in test [1] (Table 1-1, 10 μM concentration of compound, mean ± SD of three measurements, read-out: μOR Binding rate (%)) was determined as 68.4 ± 3.4%; in test [2] (0.5 h, Table 1-1, 10 μM concentration of compound, read-out: δOR Binding rate (%)), 0%; in test [3] (0.5 h, Table 1-1, 10 μM concentration of compound, read-out: κOR Binding rate (%)) it was 71.2 ± 2.7%. The “Maximum percentage effective analgesic (% MPE)” value in test [4] (Table 1-2, hot plate 55° C., 5 mg/kg dose) amounted to 22.8%.
For the compound `COc1cccc(C2(O)CCN(C(=O)Cc3cc(C(F)(F)F)cc(C(F)(F)F)c3)CC2CN(C)C)c1.Cl` (stereo not shown) [FWBE1, 2-(3,5-Bis(trifluoromethyl)phenyl)-1-(3-((dimethylamino)methyl)-4-hydroxy-4-(3-methoxyphenyl)piperidin-1-yl)ethyl-1-one hydrochloride], the Ki amounted to 0.0253 ± 0.0049 µM in test [1] (Table 5-1), 4.39 ± 0.351 µM in test [2] (Table 5-1) and 4.42 ± 0.181 µM in test [3] (Table 5-1). In addition, the “Maximum percentage effective analgesia (% MPE)” value in test [4] is reported as 17.8%.
For `COc1cccc(C2(O)CCN(C(=O)Cc3cccc([N+](=O)[O-])c3)CC2CN(C)C)c1.Cl` (stereo not shown) [FWBE22, 1-(3-((Dimethylamino)methyl)-4-hydroxy-4-(3-methoxyphenyl)piperidin-1-yl)-2-(3-nitrophenyl) ethyl-1-one hydrochloride], in that order: 0.0856 ± 0.0154 µM, over 10 µM, 1.99 ± 0.145 µM and 72.88%.

The record behind these values is US12624004B2 (Fudan University, priority 2019, dated 2026).
